Reference: patent US11746111B2, “Siderophore conjugated pyrazolidinones, and analogues thereof” (YALE UNIVERSITY, priority 2018, dated 2023)
≈ marks a conversion by molar mass, not a printed value. Like-named read-outs stand apart in the source and are kept apart here.

Experiments:
[1] = target: Pseudomonas aeruginosa penicillin binding protein 3 (PBP3) (Pseudomonas aeruginosa, UniProt G3XD46); experiment: Inhibition of penicillin binding protein 3 (Bocillin based assay); conditions: Pseudomonas aeruginosa PBP3 (FIG. 5)
Description: FIG. 5 is a graph showing compound 26 inhibiting Pseudomonas aeruginosa penicillin binding protein 3 (PBP3).
To assess the affinity of the inhibitors for PBP3 and PBP1a and PBP1b, a Bocillin based assay using PA01 membranes as well as purified proteins is used. Delineation of remarkably active compounds occurs by establishing the MIC90 against Ec, Pa, Ab and Kp as well as static time kill measurement. When siderophore linked pyrazolidinone agents show remarkable activity (i.e. activity equal to or greater than current clinical agents Meropenem or Aztreonam) in these latter secondary assays, they are tested in vivo in a mouse septicemia efficacy model after protein binding measurement and will show potent in vivo activity.

[2] = test system: K. pneumoniae clinical isolates; experiment: Microdilution broth MIC, K. pneumoniae clinical isolates (Table 1); assay type: cell-based; conditions: Klebsiella pneumoniae
Protocol: (§1) Microdilution Broth Minimum Inhibitory Concentrations (MICs)
(§2) MICs were performed in triplicate in cation adjusted Mueller-Hinton (MH) broth 30 according to CLSI guidelines. Firstly, overnight cultures of E. coli and K. pneumoniae clinical isolates were inoculated into 5 ml MH broth to OD600=0.1 and grown to OD600=0.224 (approximately 1-2×10^8 CFU/ml). These cultures were diluted (3 μl+4997 μl MH) and 100 μl inoculated into each well of a 96-well plate containing 100 μl of serial dilutions of compound 26 (YU253434), ampicillin, ceftazidime, or imipenem. The plates were placed in a 37° C. incubator for 18-20 hours and wells checked for growth.

E. coli = experiment: MIC versus E. coli strains incl. Class B metallo beta lactamases (Table 2); assay type: cell-based; conditions: Escherichia coli
Description: (§3) Tables 2 and 3 show MIC values of compound 26 (YU253434) and 42 YU253911 versus E. coli and P. Aeruginosa strains containing Class B metallo beta lactamases VIM and NDM compared with Meropenem as a standard.

[3] = test system: E. coli clinical isolates; experiment: Microdilution broth MIC, E. coli clinical isolates (Table 1); assay type: cell-based; conditions: Escherichia coli, read-out: MIC
Protocol: as §1, §2

Pseudomonas aeruginosa = experiment: MIC versus Pseudomonas aeruginosa strains incl. Class B metallo beta lactamases (Table 3); assay type: cell-based
Description: as §3

Chain of Pseudomonas aeruginosa penicillin binding protein 3 (PBP3) (G3XD46 whole entry): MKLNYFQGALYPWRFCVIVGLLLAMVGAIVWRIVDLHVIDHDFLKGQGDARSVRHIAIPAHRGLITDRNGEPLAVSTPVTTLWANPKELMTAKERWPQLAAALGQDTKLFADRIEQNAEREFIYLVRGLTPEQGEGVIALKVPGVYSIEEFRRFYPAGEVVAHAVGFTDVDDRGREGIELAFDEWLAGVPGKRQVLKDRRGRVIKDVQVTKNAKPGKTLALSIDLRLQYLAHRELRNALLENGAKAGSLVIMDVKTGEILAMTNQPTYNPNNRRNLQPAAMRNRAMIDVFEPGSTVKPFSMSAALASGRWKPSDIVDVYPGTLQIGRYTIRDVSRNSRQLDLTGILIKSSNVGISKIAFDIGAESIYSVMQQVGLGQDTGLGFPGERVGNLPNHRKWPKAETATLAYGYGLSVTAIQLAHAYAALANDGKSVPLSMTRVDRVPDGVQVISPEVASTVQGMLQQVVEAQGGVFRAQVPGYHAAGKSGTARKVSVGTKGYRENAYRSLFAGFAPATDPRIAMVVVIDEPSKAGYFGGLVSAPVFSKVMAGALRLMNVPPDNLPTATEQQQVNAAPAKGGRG

CC(C)(O/N=C(\C(=O)N[C@H]1CN2CC(C(=O)NCCN3C(=O)c4cc(O)c(O)cc4C3=O)=C(C(=O)O)N2C1=O)c1csc(N)n1)C(=O)O [Compound 26, (S,Z)-6-(2-(2-aminothiazol-4-yl)-2-(((2-carboxypropan-2-yl)oxy)imino)acetamido)-2-((2-(5,6-dihydroxy-1,3-dioxoisoindolin-2-yl)ethyl)carbamoyl)-5-oxo-6,7-dihydro-1H,5H-pyrazolo[1,2-a]pyrazole-3-carboxylic acid]
IC50 [1]: 2.5 ± 0.5 µM
MIC ([2]; K. pneumoniae 7000063, β-lactamase SHV-18, read-out: MIC): 2 mg/L (≈ 2.91 µM)
MIC ([2]; K. pneumoniae KB390 Quale, TEM-30, TEM-1, KPC-2, SHV-12, read-out: MIC): 2 mg/L (≈ 2.91 µM)
MIC ([2]; K. pneumoniae LC40, CTX-M-1 grp(15), TEM (164S), read-out: MIC): 16 mg/L (≈ 23.3 µM)
MIC ([2]; K. pneumoniae LC56, CTX-M-1 grp(15), read-out: MIC): 0.5 mg/L (≈ 0.728 µM)
MIC ([2]; K. pneumoniae LC102, SHV-1 (WT + 238S), read-out: MIC): 1 mg/L
MIC ([2]; K. pneumoniae LC121, SHV-1 (WT + 238S + 240K), read-out: MIC): 4 mg/L
MIC ([2]; K. pneumoniae Rush23, CTX-M-9 group, read-out: MIC): 2 mg/L (≈ 2.91 µM)
MIC ([2]; K. pneumoniae VA-368, KPC-2, TEM-1, SHV-5, SHV-68): 0.25 mg/L (≈ 0.364 µM)
MIC ([2]; K. pneumoniae VA-384, KPC-2, TEM-1, SHV-11, SHV-12, SHV-14): 8 mg/L (≈ 11.7 µM)
MIC ([2]; K. pneumoniae VA-398, KPC-3, TEM-1, SHV-11, SHV-12, SHV-27): 8 mg/L (≈ 11.7 µM)
MIC (E. coli; ATCC25822, E. coli isolate ATCC 25822, CLSI costrol): 2 mg/L (≈ 2.91 µM)
MIC (E. coli; E. coli isolate AA-118, NDM): 4 mg/L (≈ 5.83 µM)
MIC (E. coli; E. coli isolate AA-119, NDM): 4 mg/L (≈ 5.83 µM)
MIC (E. coli; E. coli isolate AA-128, NDM): 4 mg/L (≈ 5.83 µM)
MIC (E. coli; E. coli isolate AK-114, KPC-3, TEM-18): 0.5 mg/L (≈ 0.728 µM)
MIC (E. coli; E. coli isolate AR-1, KPC-3): 1 mg/L (≈ 1.46 µM)
MIC (E. coli; E. coli isolate AR-11, CTX-M-15, OxA-1): 0.5 mg/L (≈ 0.728 µM)
MIC (E. coli; E. coli isolate AR-137, NDM-6): 4 mg/L (≈ 5.83 µM)
MIC (E. coli; E. coli isolate AR-145, NDM): > 64 mg/L
MIC (E. coli; E. coli isolate J4244, MN): 2 mg/L (≈ 2.91 µM)
MIC (E. coli; E. coli isolate J4245, Michigan): 0.25 mg/L (≈ 0.364 µM)
MIC ([3]; BAA202, E. coli BAA-202, SHV-1): 4 mg/L (≈ 5.83 µM)
MIC ([3]; E. coli 35218, TEM-1): 0.125 mg/L (≈ 0.182 µM)
MIC ([3]; E. coli LC4, TEM, SHV-12): 16 mg/L (≈ 23.3 µM)
MIC ([3]; E. coli LC12, CTX-M-1 grp(15)): > 128 mg/L
MIC ([3]; E. coli LC33, CTX-M-9 group): 1 mg/L (≈ 1.46 µM)
MIC ([3]; E. coli LC38, CTX-M-1 grp(15), PB AmpC (ACT/MIR)): 0.25 mg/L (≈ 0.364 µM)
MIC ([3]; E. coli LC41, TEM (238S), PB AmpC (ACT/MIR), CTX-M-1 grp(15)): 16 mg/L (≈ 23.3 µM)
MIC ([3]; E. coli LC77, TEM, KPC): 0.5 mg/L (≈ 0.728 µM)
MIC ([3]; E. coli LC81, SHV (238S + 240K)): 16 mg/L
MIC ([3]; E. coli LC98, CMY (group II)): 4 mg/L (≈ 5.83 µM)
MIC ([3]; E. coli LC109, CTX-M-9 group, CMY (group II)): 0.25 mg/L (≈ 0.364 µM)
MIC ([3]; E. coli LC111, TEM (164S)): 1 mg/L (≈ 1.46 µM)
MIC ([3]; E. coli LC136, SHV (WT + 238S)): 0.125 mg/L
MIC ([3]; E. coli Rush24, CMY (group II)): 8 mg/L (≈ 11.7 µM)
MIC (Pseudomonas aeruginosa; ATCC27853, P. aeruginosa isolate ATCC 27853, CLSI control): 0.25 mg/L (≈ 0.364 µM)
MIC (Pseudomonas aeruginosa; P. aeruginosa isolate AR-229, OXA-50): 0.25 mg/L (≈ 0.364 µM)
MIC (Pseudomonas aeruginosa; P. aeruginosa isolate AR-230, VIM-2): 1 mg/L (≈ 1.46 µM)
MIC (Pseudomonas aeruginosa; P. aeruginosa isolate AR-231, KPC-5): 0.5 mg/L (≈ 0.728 µM)
MIC (Pseudomonas aeruginosa; P. aeruginosa isolate AR-232, OXA-50): 0.5 mg/L (≈ 0.728 µM)
MIC (Pseudomonas aeruginosa; P. aeruginosa isolate AR-245, VIM): 0.5 mg/L (≈ 0.728 µM)
MIC (Pseudomonas aeruginosa; P. aeruginosa isolate AR-249, VIM): 1 mg/L (≈ 1.46 µM)
MIC (Pseudomonas aeruginosa; P. aeruginosa isolate AR-252): 1 mg/L (≈ 1.46 µM)
MIC (Pseudomonas aeruginosa; P. aeruginosa isolate AR-254, VIM): 2 mg/L (≈ 2.91 µM)
MIC (Pseudomonas aeruginosa; P. aeruginosa isolate AR-270, OXA-50): 0.25 mg/L (≈ 0.364 µM)
MIC (Pseudomonas aeruginosa; P. aeruginosa isolate J4242, UNC-D): 0.5 mg/L (≈ 0.728 µM)
